This passage reports Ki results from patent US20190185518A9, “WARHEAD-CONTAINING PEPTIDOMIMETIC MACROCYCLES AS MODULATORS OF BFL-1” (AILERON Therapeutics, Inc., priority 2017, published 2019).

This experiment addresses Mcl-1 (Homo sapiens, UniProt Q07820). Put plainly: Ki determination for Mcl-1 (BCL-2 family binding spectrum). The following applies: read-out: Ki MCL-1. The source says:
To assess the binding and affinity of compounds that antagonize the interaction between a peptide and an acceptor protein, a fluorescence polarization assay (FPA) utilizing a fluoresceinated peptidomimetic macrocycle derived from a peptidomimetic precursor sequence is used, for example. The FPA technique measures the molecular orientation and mobility using polarized light and fluorescent tracer. […] A compound that antagonizes the interaction between the fluoresceinated peptidomimetic macrocycle and an acceptor protein will be detected in a competitive binding FPA experiment.
Antagonist binding activity is measured, for example, by fluorescence polarization on a luminescence spectrophotometer (e.g. Perkin-Elmer LS50B). Kd values may be determined by nonlinear regression analysis using, for example, Graphpad Prism software (GraphPad Software, Inc., San Diego, Calif.).

Positions of bridges follow the written chain, without caps; N, C: chain ends. Non-standard residues stand in square brackets, D forms with d. Residues, ends and D or L forms follow the SMILES beside them. 2Nal = N[C@@H](Cc1ccc2ccccc2c1)C(=O)O; R8 = C=CCCCCCC[C@@](C)(N)C(=O)O; S5 = C=CCCC[C@](C)(N)C(=O)O

Chain of Mcl-1 (Q07820 whole entry, species assumed): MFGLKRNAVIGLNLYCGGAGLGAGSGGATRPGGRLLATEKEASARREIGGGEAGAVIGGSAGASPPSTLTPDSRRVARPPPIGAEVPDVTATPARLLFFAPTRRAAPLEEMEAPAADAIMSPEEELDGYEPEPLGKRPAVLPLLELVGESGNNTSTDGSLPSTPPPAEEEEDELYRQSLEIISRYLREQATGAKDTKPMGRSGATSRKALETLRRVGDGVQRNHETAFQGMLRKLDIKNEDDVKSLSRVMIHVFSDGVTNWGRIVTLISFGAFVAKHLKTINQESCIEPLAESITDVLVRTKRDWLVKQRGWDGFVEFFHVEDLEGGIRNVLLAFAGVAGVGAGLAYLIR

The term Ki denotes the dissociation constant of the complex between target and ligand, obtained from inhibition or displacement. Regarding `CC[C@H](C)[C@H](NC(C)=O)C(=O)N[C@@H](Cc1ccccc1)C(=O)N[C@H](C(=O)N[C@@H](C)C(=O)N[C@@H](C)C(=O)N[C@@H](C)C(=O)N[C@@H](CC(C)C)C(=O)N[C@@H](CCCNC(=N)N)C(=O)N[C@]1(C)CCCCCCC=CCCC[C@@](C)(C(=O)N[C@@H](Cc2ccc(O)cc2)C(=O)N[C@@H](Cc2ccc(O)cc2)C(=O)N[C@@H](C)C(N)=O)NC(=O)[C@H](CC(N)=O)NC(=O)[C@H](Cc2ccccc2)NC(=O)[C@H](C)NC(=O)[C@H](CC(=O)O)NC(=O)CNC(=O)[C@H]([C@@H](C)CC)NC1=O)[C@@H](C)CC` [compound 1731] (Ac-IFIAAALR[R8]IGDAFN[S5]YYA-NH2; staple 9-16), the Ki came to 10.2 nM. Next, `CC[C@H](C)[C@H](NC(C)=O)C(=O)N[C@@H](Cc1ccc2ccccc2c1)C(=O)N[C@H](C(=O)N[C@@H](C)C(=O)N[C@@H](C)C(=O)N[C@@H](C)C(=O)N[C@@H](CC(C)C)C(=O)N[C@@H](CCCNC(=N)N)C(=O)N[C@]1(C)CCCCCCC=CCCC[C@@](C)(C(=O)N[C@@H](Cc2ccc(O)cc2)C(=O)N[C@@H](Cc2ccc(O)cc2)C(=O)N[C@@H](C)C(N)=O)NC(=O)[C@H](CC(N)=O)NC(=O)[C@H](Cc2ccccc2)NC(=O)[C@H](C)NC(=O)[C@H](CC(=O)O)NC(=O)CNC(=O)[C@H]([C@@H](C)CC)NC1=O)[C@@H](C)CC` [compound 1732] (Ac-I[2Nal]IAAALR[R8]IGDAFN[S5]YYA-NH2; staple 9-16): 13.7 nM; `CC[C@H](C)[C@H](NC(C)=O)C(=O)N[C@@H](Cc1c[nH]c2ccccc12)C(=O)N[C@H](C(=O)N[C@@H](CO)C(=O)N[C@@H](C)C(=O)N[C@@H](C)C(=O)N[C@@H](CC(C)C)C(=O)N[C@@H](CCCNC(=N)N)C(=O)N[C@]1(C)CCCCCCC=CCCC[C@@](C)(C(=O)N[C@@H](Cc2ccc(O)cc2)C(=O)N[C@@H](Cc2ccc(O)cc2)C(=O)N[C@@H](C)C(N)=O)NC(=O)[C@H](CC(N)=O)NC(=O)[C@H](Cc2ccccc2)NC(=O)[C@H](C)NC(=O)[C@H](CC(=O)O)NC(=O)CNC(=O)[C@H]([C@@H](C)CC)NC1=O)[C@@H](C)CC` [compound 1733] (Ac-IWISAALR[R8]IGDAFN[S5]YYA-NH2; staple 9-16): 3.6 nM; `CC[C@H](C)[C@H](NC(C)=O)C(=O)N[C@@H](Cc1c[nH]c2ccccc12)C(=O)N[C@H](C(=O)N[C@@H](CC(C)C)C(=O)N[C@@H](C)C(=O)N[C@@H](C)C(=O)N[C@@H](CC(C)C)C(=O)N[C@@H](CCCNC(=N)N)C(=O)N[C@]1(C)CCCCCCC=CCCC[C@@](C)(C(=O)N[C@@H](Cc2ccc(O)cc2)C(=O)N[C@@H](Cc2ccc(O)cc2)C(=O)N[C@@H](C)C(N)=O)NC(=O)[C@H](CC(N)=O)NC(=O)[C@H](Cc2ccccc2)NC(=O)[C@H](C)NC(=O)[C@H](CC(=O)O)NC(=O)CNC(=O)[C@H]([C@@H](C)CC)NC1=O)[C@@H](C)CC` [compound 1734] (Ac-IWILAALR[R8]IGDAFN[S5]YYA-NH2; staple 9-16): 19.7 nM. As for `CC[C@H](C)[C@H](NC(C)=O)C(=O)N[C@@H](Cc1c[nH]c2ccccc12)C(=O)N[C@H](C(=O)N[C@@H](C)C(=O)N[C@@H](CC(C)C)C(=O)N[C@@H](C)C(=O)N[C@@H](CC(C)C)C(=O)N[C@@H](CCCNC(=N)N)C(=O)N[C@]1(C)CCCCCCC=CCCC[C@@](C)(C(=O)N[C@@H](Cc2ccc(O)cc2)C(=O)N[C@@H](Cc2ccc(O)cc2)C(=O)N[C@@H](C)C(N)=O)NC(=O)[C@H](CC(N)=O)NC(=O)[C@H](Cc2ccccc2)NC(=O)[C@H](C)NC(=O)[C@H](CC(=O)O)NC(=O)CNC(=O)[C@H]([C@@H](C)CC)NC1=O)[C@@H](C)CC` [compound 1736] (Ac-IWIALALR[R8]IGDAFN[S5]YYA-NH2; staple 9-16), the figure is 11.6 nM.
